Data reported in US20240360165A1, “INHIBITORS OF CYCLIN DEPENDENT KINASE 7 (CDK7)” (Syros Pharmaceuticals, Inc., priority 2016, published 2024).
Read-outs that look alike come from different tables or passages of the source.

How the values were obtained:
[1] = molecular target: CDK7/Cyclin H/MAT1 complex (Homo sapiens, UniProt P50613); assay: CDK7 inhibition assay (Caliper/LabChip EZ Reader kinase assay); format: biochemical; settings: Table 1; CDK7/Cyclin H/MAT1 6 nM, ATP 2 mM, 35 min at 27° C.
Sequence of CDK7/Cyclin H/MAT1 complex (P50613 whole entry, species assumed): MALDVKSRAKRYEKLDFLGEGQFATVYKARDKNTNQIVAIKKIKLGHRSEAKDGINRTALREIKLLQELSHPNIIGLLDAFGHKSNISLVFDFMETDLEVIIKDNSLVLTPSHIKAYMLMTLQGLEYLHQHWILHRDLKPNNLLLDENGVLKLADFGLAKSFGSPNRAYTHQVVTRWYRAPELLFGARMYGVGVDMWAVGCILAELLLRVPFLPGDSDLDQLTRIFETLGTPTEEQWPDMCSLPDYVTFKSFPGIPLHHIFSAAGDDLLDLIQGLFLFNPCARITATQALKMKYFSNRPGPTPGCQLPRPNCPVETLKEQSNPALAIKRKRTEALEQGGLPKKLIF
Sequence of CDK7/Cyclin H/MAT1 complex (P51946 whole entry partner, species assumed): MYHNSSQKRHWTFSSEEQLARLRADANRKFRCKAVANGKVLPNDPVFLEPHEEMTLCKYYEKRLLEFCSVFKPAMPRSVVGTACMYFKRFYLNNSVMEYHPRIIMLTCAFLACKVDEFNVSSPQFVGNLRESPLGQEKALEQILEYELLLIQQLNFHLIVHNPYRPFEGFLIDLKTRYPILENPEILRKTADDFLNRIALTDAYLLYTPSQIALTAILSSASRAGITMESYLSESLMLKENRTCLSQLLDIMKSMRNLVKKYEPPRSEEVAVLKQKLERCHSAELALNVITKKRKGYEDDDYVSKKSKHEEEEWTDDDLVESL
Sequence of CDK7/Cyclin H/MAT1 complex (P51948 whole entry partner, species assumed): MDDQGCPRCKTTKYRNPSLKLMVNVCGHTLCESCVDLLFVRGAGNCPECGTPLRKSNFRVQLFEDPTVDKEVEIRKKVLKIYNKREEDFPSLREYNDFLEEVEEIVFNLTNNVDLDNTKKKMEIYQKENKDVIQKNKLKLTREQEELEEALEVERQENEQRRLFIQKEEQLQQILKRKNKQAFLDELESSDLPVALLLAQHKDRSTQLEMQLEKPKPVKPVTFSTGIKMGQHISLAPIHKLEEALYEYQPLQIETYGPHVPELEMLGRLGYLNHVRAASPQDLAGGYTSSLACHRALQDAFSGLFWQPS
How it was run: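 A Perkin Elmer Caliper/LabChip EZ Reader (Waltham, MA) platform served as the basis for this CDK7 kinase inhibition assay. The work was carried out by Biortus Biosciences, located in Jiangyin, Jiangsu Province, P.R. of China. Each CDK studied had its own kinase assay, and compounds were evaluated for their ability to block CDK7 activity.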

[2] = molecular target: CDK9/Cyclin T1 complex (Homo sapiens, UniProt P50750); assay: CDK9 inhibition assay (Caliper/LabChip EZ Reader kinase assay); format: biochemical; settings: Table 1; CDK9/Cyclin T1 8 nM, ATP 2 mM, 15 min at 27° C.
Sequence of CDK9/Cyclin T1 complex (P50750 whole entry, species assumed): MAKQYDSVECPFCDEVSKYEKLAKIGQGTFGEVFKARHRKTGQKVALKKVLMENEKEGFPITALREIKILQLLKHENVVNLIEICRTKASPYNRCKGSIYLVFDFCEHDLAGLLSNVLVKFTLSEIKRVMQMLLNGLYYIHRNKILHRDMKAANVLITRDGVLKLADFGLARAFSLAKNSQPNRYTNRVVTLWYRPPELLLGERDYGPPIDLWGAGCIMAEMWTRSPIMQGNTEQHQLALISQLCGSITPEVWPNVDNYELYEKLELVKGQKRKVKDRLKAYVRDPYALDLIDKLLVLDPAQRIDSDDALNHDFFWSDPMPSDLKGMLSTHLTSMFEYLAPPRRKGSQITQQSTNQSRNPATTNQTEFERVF
Sequence of CDK9/Cyclin T1 complex (O60563 whole entry partner, species assumed): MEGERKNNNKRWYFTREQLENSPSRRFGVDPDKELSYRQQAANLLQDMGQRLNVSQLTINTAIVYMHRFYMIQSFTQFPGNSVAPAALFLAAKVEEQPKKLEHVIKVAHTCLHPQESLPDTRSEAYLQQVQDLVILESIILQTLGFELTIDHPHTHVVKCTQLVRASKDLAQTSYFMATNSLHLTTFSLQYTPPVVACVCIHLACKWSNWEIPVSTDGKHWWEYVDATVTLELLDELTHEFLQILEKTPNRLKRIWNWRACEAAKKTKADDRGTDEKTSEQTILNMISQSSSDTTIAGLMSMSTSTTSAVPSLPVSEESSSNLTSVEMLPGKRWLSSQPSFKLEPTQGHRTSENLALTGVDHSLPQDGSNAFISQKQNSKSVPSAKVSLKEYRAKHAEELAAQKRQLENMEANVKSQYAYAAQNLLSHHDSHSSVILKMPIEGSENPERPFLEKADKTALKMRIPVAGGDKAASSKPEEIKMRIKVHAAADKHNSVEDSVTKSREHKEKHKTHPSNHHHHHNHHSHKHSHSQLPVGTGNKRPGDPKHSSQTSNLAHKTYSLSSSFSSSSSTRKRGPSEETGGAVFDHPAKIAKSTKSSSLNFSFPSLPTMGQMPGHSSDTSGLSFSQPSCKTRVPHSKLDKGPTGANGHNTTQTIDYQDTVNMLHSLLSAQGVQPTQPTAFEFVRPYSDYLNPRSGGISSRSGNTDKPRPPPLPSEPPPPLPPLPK
How it was run: (§1)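 Caliper/LabChip EZ Reader mobility-shift assays. CDK9/Cyclin T1 at 8 nM with 2 μM 5-FAM-CDK9tide peptide and 10 mM MgCl2; CDK2/Cyclin E1 at 0.5 nM with 2 μM 5-FAM-CDK7tide and 2 mM MgCl2.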

[3] = molecular target: T1, CDK12 (aa686-1082)/Cyclin K complex (Homo sapiens, UniProt Q9NYV4); assay: CDK12 inhibition assay (Caliper/LabChip EZ Reader kinase assay); format: biochemical; settings: Table 1; CDK12 (aa686-1082)/Cyclin K 50 nM, ATP 2 mM, 3 hr at 27° C.
T1 construct: CDK12 (aa686-1082)/Cyclin K complex
T1 sequence (Q9NYV4 686-1082, species assumed): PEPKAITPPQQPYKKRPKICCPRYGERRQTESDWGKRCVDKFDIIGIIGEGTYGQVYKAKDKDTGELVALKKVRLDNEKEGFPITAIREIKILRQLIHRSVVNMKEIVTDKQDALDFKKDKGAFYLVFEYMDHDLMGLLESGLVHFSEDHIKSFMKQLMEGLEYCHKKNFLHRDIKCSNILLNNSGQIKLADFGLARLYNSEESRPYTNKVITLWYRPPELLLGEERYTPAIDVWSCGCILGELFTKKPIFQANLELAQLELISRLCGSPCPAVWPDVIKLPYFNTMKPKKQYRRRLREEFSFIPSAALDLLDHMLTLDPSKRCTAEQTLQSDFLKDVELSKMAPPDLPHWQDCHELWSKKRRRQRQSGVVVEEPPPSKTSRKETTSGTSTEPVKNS
T1 sequence (O75909 whole entry partner, species assumed, the tested form may be a part): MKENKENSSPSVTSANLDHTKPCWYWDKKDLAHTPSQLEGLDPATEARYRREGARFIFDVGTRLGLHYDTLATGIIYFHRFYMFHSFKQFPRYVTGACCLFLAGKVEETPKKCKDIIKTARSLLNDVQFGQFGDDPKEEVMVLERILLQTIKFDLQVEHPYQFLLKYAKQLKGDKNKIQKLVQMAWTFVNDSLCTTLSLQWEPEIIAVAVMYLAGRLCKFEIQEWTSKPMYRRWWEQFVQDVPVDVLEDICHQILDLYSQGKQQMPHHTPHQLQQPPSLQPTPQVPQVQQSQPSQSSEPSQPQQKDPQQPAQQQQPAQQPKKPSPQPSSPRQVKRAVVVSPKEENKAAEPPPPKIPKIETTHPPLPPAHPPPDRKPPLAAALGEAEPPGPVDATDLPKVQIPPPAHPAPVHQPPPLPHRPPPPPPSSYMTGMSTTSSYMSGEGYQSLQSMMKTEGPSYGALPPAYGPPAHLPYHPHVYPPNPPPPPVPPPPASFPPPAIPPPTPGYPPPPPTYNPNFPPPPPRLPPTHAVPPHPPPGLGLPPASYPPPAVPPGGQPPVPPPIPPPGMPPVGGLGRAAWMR

[4] = molecular target: CDK2/Cyclin E1 complex (Homo sapiens, UniProt P24941); assay: CDK2 inhibition assay (Caliper/LabChip EZ Reader kinase assay); format: biochemical; settings: Table 1; CDK2/Cyclin E1 0.5 nM, ATP 2 mM, 35 min at 27° C.
How it was run: as §1

[5] = test system: HCC70 cells; assay: Inhibition of proliferation of HCC70 cells (CyQUANT Direct Cell Proliferation Assay, 72 hour); format: cell-based, human; settings: read-out: Inhibition of Proliferation of HCC70 Cells (calculated IC50)
Method: HCC70 cells are a cell line derived from human triple negative breast cancer. […] Known CDK inhibitors dinaciclib or N-((1S,3R)-3-((5-chloro-4-(1H-indol-3-yl) pyrimidin-2-yl)amino)cyclohexyl)-5-((E)-4-(dimethylamino)but-2-enamido)picolinamide and triptolide were used as positive controls. […] The cells were cultured at 37° C. in a humidified chamber in the presence of 5% CO2. Proliferation assays were conducted over a 72 hour time period. CyQUANT® Direct Cell Proliferation Assay (Life Technologies, Chicago, IL USA) was used to assess the anti-proliferative effects of the compounds following manufacturer's directions and utilizing the reagents supplied with the CyQUANT® Direct Cell kit.

Structure (SMILES)	IC50 [1] [nM]	IC50 [2] [nM]	IC50 [3] [nM]	IC50 [4] [nM]	IC50 ([5]; Homo sapiens, HCC70, 72 h) [nM]	IC50 [5] [nM]
O=C(c1ccc2c(-c3nc(N[C@H]4CCCNC4)ncc3C(F)(F)F)c[nH]c2c1)N1CC[C@](O)(C(F)(F)F)C1 (single isomer, unassigned) [Compound 299]	< 20	200 to 5000	200 to 5000	200 to 5000	1000 to 5000	–
CC[C@@]1(O)CCN(C(=O)c2ccc3c(-c4nc(N[C@H]5CCCNC5)ncc4C(F)(F)F)c[nH]c3c2)C1 (single isomer, unassigned) [Compound 309]	20 to 200	> 5000	200 to 5000	> 5000	1000 to 5000	–
CC[C@]1(O)CCN(C(=O)c2ccc3c(-c4nc(N[C@H]5CCCNC5)ncc4C(F)(F)F)c[nH]c3c2)C1 (single isomer, unassigned) [Compound 347]	20 to 200	> 5000	200 to 5000	> 5000	100 to 1000	–
CC1CCNCC1Nc1ncc(C(F)(F)F)c(-c2c[nH]c3ccccc23)n1 (single isomer, unassigned) [Compound 373]	20 to 200	> 5000	> 5000	> 5000	–	1000 to 5000
N#Cc1ccc2c(-c3nc(N[C@@H]4CCC5(CCC5)NC4)ncc3C(F)(F)F)c[nH]c2c1 (single isomer, unassigned) [Compound 377]	< 20	200 to 5000	200 to 5000	> 5000	100 to 1000	–
CO[C@H]1CCN(C(=O)c2ccc3c(-c4nc(N[C@H]5CCCNC5)ncc4C(F)(F)F)c[nH]c3c2)C1 [Compound 280]	20 to 200	> 5000	200 to 5000	> 5000	–	100 to 1000
COCn1cc(-c2nc(N[C@H]3CCCNC3)ncc2C(F)(F)F)c2cccc(C#N)c21 [Compound 295]	20 to 200	> 5000	> 5000	> 5000	–	1000 to 5000
CNC(=O)c1cccc2c(-c3nc(N[C@H]4CCCNC4)ncc3C(F)(F)F)cn(COC)c12 [Compound 304]	> 5000	> 5000	> 5000	> 5000	–	1000 to 5000
FC(F)(F)Sc1cnc(NC2CCCNC2)nc1-c1c[nH]c2ccccc12 (stereo not shown) [Compound 305, 4-(1H-indol-3-yl)-N-(piperidin-3-yl)-5-((trifluoromethyl)thio)pyrimidin-2-amine]	< 20	200 to 5000	200 to 5000	200 to 5000	1000 to 5000	–
O=C(c1ccc2c(-c3nc(N[C@H]4CCCNC4)ncc3C(F)(F)F)c[nH]c2c1)N1C[C@H](O)C(F)(F)C1 [Compound 308, [(4S)-3,3-difluoro-4-hydroxy-pyrrolidin-1-yl]-[3-[2-[[(3S)-3-piperidyl]amino]-5-(trifluoromethyl)pyrimidin-4-yl]-1H-indol-6-yl]methanone]	< 20	200 to 5000	200 to 5000	200 to 5000	100 to 1000	–
Oc1ncccc1-c1ccc2c(-c3nc(N[C@H]4CCCNC4)ncc3C(F)(F)F)c[nH]c2c1 [Compound 310, 3-[3-[2-[[(3S)-3-piperidyl]amino]-5-(trifluoromethyl)pyrimidin-4-yl]-1H-indol-6-yl]pyridin-2-ol]	< 20	> 5000	200 to 5000	200 to 5000	100 to 1000	–
FC(F)(F)c1cnc(N[C@H]2CCCNC2)nc1-c1c[nH]c2cc(-c3ccc4[nH]cnc4c3)ccc12 [Compound 313]	< 20	200 to 5000	200 to 5000	200 to 5000	–	100 to 1000
NS(=O)(=O)c1ccc(-c2ccc3c(-c4nc(N[C@H]5CCCNC5)ncc4C(F)(F)F)c[nH]c3c2)cc1 [Compound 331]	20 to 200	–	200 to 5000	–	–	100 to 1000
Cn1ncc2ccc(-c3ccc4c(-c5nc(N[C@H]6CCCNC6)ncc5C(F)(F)F)c[nH]c4c3)cc21 [Compound 337]	20 to 200	–	200 to 5000	–	–	100 to 1000

Now from value to molecule, other results behind:

IC50 [1] [nM]	IC50 [2] [nM]	IC50 [3] [nM]	IC50 [4] [nM]	Structure (SMILES)	IC50 ([5]; Homo sapiens, HCC70, 72 h) [nM]	IC50 [5] [nM]
< 20	200 to 5000	200 to 5000	200 to 5000	COC1CCN(C(=O)c2ccc3c(-c4nc(N[C@H]5CCCNC5)ncc4C(F)(F)F)c[nH]c3c2)C1 (single isomer, unassigned) [Compound 281]	100 to 1000	–
< 20	200 to 5000	200 to 5000	200 to 5000	O=C(c1ccc2c(-c3nc(N[C@H]4CCCNC4)ncc3C(F)(F)F)c[nH]c2c1)N1CC[C@@](O)(C(F)(F)F)C1 (single isomer, unassigned) [Compound 300]	100 to 1000	–
< 20	> 5000	200 to 5000	200 to 5000	CP(C)(=O)c1cccc2c(-c3nc(N[C@H]4CCCNC4)ncc3C(F)(F)F)c[nH]c12 (single isomer, unassigned) [Compound 353]	< 100	–
20 to 200	200 to 5000	200 to 5000	200 to 5000	CC1CCNCC1Nc1ncc(C(F)(F)F)c(-c2c[nH]c3ccccc23)n1 (single isomer, unassigned) [Compound 372]	–	100 to 1000
20 to 200	> 5000	> 5000	> 5000	N#Cc1ccc2c(-c3nc(N[C@H]4CCC5(CCC5)NC4)ncc3C(F)(F)F)c[nH]c2c1 (single isomer, unassigned) [Compound 378]	1000 to 5000	–
< 20	200 to 5000	200 to 5000	200 to 5000	CCc1cnc(N[C@H]2CCCNC2)nc1-c1c[nH]c2c(S(C)(=O)=O)cccc12 [Compound 269, (S)-5-ethyl-4-(7-(methylsulfonyl)-1H-indol-3-yl)-N-(piperidin-3-yl)pyrimidin-2-amine]	100 to 1000	–
< 20	> 5000	200 to 5000	200 to 5000	CC1(O)CCN(C(=O)c2ccc3c(-c4nc(N[C@H]5CCCNC5)ncc4C(F)(F)F)c[nH]c3c2)CC1 [Compound 282, (4-hydroxy-4-methyl-1-piperidyl)-[3-[2-[[(3S)-3-piperidyl]amino]-5-(trifluoromethyl)pyrimidin-4-yl]-1H-indol-6-yl] methanone]	100 to 1000	–
20 to 200	> 5000	> 5000	> 5000	Cn1cc(-c2nc(N[C@H]3CCCNC3)ncc2C(F)(F)F)c2cccc(S(C)(=O)=O)c21 [Compound 296]	–	1000 to 5000
< 20	200 to 5000	200 to 5000	200 to 5000	CNC(=O)c1ccc2c(-c3nc(N[C@H]4CCCNC4)ncc3C(F)(F)F)c[nH]c2n1 [Compound 297]	< 100	–
< 20	> 5000	200 to 5000	200 to 5000	CCN1CCC[C@H](Nc2ncc(C(F)(F)F)c(-c3c[nH]c4cc(S(C)(=O)=O)ccc34)n2)C1 [Compound 298]	100 to 1000	–
20 to 200	> 5000	> 5000	> 5000	N#Cc1ccc2c(-c3nc(N[C@H]4CCCNC4)ncc3OC(F)F)c[nH]c2c1 [Compound 301, 3-[5-(difluoromethoxy)-2-[[(3S)-3-piperidyl]amino]pyrimidin-4-yl]-1H-indole-6-carbonitrile]	1000 to 5000	–
20 to 200	200 to 5000	200 to 5000	200 to 5000	O=C1CCN(C(=O)c2ccc3c(-c4nc(N[C@H]5CCCNC5)ncc4C(F)(F)F)c[nH]c3c2)C1 [Compound 302, 1-[3-[2-[[(3S)-3-piperidyl]amino]-5-(trifluoromethyl)pyrimidin-4-yl]-1H-indole-6-carbonyl] pyrrolidin-3-one]	100 to 1000	–
< 20	200 to 5000	200 to 5000	200 to 5000	Cc1c(-c2ccc3c(-c4nc(N[C@H]5CCCNC5)ncc4C(F)(F)F)c[nH]c3c2)c[nH]c(=O)c1C#N [Compound 311, 4-methyl-2-oxo-5-[3-[2-[[(3S)-3-piperidyl]amino]-5-(trifluoromethyl)pyrimidin-4-yl]-1H-indol-6-yl]-1H-pyridine-3-carbonitrile]	1000 to 5000	–
< 20	200 to 5000	200 to 5000	200 to 5000	NC(=O)c1cccc(-c2ccc3c(-c4nc(N[C@H]5CCCNC5)ncc4C(F)(F)F)c[nH]c3c2)c1 [Compound 314]	–	100 to 1000
